Laboratory results taken from article PMC6402191 (Clinical and Translational Science, 2017).
Where “and” joins values, the source holds several entries; their conditions need not be identical. Identical values can stand only once. Entries after “also recorded” stand apart in the source; their conditions may differ.

How the values were obtained:
[1] = Clinical baricitinib-probenecid DDI study in healthy subjects; format: in vivo, human
BCRP = molecular target: T1, BCRP (Homo sapiens, UniProt Q9UNQ0); assay: Bidirectional transport of baricitinib in MDCK-BCRP cells; format: in vitro ADME
T1 sequence (Q9UNQ0 1-655): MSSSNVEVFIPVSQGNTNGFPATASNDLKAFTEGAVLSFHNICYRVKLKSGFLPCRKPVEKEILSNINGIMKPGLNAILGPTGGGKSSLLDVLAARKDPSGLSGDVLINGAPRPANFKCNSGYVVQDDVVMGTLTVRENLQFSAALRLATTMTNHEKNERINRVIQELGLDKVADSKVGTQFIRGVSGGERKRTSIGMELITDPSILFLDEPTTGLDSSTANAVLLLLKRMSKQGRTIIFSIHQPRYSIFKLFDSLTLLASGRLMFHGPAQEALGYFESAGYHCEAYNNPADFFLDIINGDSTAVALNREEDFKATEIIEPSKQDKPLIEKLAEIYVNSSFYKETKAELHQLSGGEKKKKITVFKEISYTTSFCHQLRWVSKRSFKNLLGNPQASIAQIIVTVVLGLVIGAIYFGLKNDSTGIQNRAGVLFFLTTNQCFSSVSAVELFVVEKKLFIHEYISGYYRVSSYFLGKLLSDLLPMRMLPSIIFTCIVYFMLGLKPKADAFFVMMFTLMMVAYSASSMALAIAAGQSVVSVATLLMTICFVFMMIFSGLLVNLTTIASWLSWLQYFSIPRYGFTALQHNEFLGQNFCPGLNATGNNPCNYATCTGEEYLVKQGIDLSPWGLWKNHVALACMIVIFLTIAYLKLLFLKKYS

OCT2 = molecular target: T2, OCT2 (Homo sapiens, UniProt O15244); assay: Baricitinib substrate study in OCT2-transfected HEK-PEAK cells; format: in vitro ADME
T2 sequence (O15244 1-555): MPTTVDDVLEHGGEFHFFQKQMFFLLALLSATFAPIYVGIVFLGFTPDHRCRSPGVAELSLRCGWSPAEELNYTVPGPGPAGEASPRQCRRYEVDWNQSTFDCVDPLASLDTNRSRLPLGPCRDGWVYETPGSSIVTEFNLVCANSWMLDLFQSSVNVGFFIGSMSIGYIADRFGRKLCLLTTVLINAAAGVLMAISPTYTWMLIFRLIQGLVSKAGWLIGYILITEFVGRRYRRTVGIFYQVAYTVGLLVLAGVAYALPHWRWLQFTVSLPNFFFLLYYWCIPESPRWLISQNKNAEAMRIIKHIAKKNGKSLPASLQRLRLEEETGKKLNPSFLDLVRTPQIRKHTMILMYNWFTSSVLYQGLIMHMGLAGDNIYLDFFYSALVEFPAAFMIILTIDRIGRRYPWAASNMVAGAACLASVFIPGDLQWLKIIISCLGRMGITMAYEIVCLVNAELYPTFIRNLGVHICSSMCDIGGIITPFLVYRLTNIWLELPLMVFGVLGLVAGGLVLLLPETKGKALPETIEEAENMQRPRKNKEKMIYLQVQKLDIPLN

[2] = Human mass balance study of baricitinib; format: in vivo
Plasma protein binding = format: in vitro ADME; conditions: human
[3] = Physicochemical input parameters
MATE1 = molecular target: T3, MATE1 (Homo sapiens, UniProt Q96FL8); assay: Baricitinib substrate study in MATE1-transfected HEK cells; format: in vitro ADME
T3 sequence (Q96FL8 1-570): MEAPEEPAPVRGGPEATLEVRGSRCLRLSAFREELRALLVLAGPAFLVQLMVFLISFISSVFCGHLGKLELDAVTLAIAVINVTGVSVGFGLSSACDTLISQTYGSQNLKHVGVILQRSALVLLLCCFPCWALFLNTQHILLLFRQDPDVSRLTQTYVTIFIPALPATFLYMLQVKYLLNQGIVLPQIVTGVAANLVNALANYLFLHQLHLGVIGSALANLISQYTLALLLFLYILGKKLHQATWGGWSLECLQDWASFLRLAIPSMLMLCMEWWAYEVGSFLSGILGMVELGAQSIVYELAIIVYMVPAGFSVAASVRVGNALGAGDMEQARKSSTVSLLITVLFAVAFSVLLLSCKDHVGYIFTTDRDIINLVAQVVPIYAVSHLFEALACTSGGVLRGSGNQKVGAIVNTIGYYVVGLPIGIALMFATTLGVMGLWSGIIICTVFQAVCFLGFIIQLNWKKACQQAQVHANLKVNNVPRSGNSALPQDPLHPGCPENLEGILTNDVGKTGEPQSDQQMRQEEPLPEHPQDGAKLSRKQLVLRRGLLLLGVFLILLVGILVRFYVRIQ

OAT3 = molecular target: T4, OAT3 (Homo sapiens, UniProt Q8TCC7); assay: PBPK DDI simulations of baricitinib with OAT3 inhibitors
T4 sequence (Q8TCC7 1-542): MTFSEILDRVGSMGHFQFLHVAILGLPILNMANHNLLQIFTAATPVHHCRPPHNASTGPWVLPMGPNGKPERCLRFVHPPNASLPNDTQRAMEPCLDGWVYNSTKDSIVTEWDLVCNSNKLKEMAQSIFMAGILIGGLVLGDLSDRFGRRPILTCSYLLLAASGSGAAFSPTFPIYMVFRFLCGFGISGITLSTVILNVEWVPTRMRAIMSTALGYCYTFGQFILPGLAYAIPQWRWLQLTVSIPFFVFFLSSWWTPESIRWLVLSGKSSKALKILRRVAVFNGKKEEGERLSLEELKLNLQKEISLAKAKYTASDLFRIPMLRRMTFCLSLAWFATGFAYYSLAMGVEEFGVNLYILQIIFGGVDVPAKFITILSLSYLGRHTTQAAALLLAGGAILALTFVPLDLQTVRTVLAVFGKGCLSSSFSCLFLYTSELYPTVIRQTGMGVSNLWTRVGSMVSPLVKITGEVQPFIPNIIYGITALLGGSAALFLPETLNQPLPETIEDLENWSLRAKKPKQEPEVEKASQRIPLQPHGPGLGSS

[4] = observed, listed as baricitinib

CL/F, geometric mean (CV) ([1]; 4 mg baricitinib + probenecid): 8.33 (14) L/h
CL/F, geometric mean (CV) ([1]; 4 mg baricitinib only): 16.9 (22) L/h
increase of half-life in the presence of probenecid ([1]; human, in vivo): 63%
AUC ([1]; human, plasma, oral, 4 mg): 236 ng·h/mL
Cmax ([1]; human, plasma, oral, 4 mg): 36.2 ng/mL
Tmax ([1]; human, plasma, oral, 4 mg): 1 h
half-life ([1]; human, plasma, oral, 4 mg): 437 min
CL renal ([1]; human, urine and plasma, oral, 4 mg): 183 mL/min
AUC(0‐∞) ratio of geometric LS means, baricitinib + probenecid : baricitinib only (90% CI) ([1]; observed): 2.03 (1.91, 2.16) and 2.03(1.91‐2.16)
CLr ratio of geometric LS means, baricitinib + probenecid : baricitinib only (90% CI) ([1]; observed): 0.313 (0.289, 0.339)
Cmax ratio of geometric LS means, baricitinib + probenecid : baricitinib only (90% CI) ([1]; observed): 1.03 (0.940, 1.13)
AUC(0‐∞) ratio of geometric LS means, baricitinib + probenecid : baricitinib only (90% CI) [1, 4]: twofold; also recorded: doubled
Cmax ratio of geometric LS means, baricitinib + probenecid : baricitinib only (90% CI) [1, 4]: 1.03
BCRP substrate (BCRP): substrate of BCRP
Papp A→B at 5 µM (BCRP; dog): 0.83 ×10⁻⁶ cm/s
Papp B→A at 5 µM (BCRP; dog): 10.1 ×10⁻⁶ cm/s
OCT2 substrate (OCT2): not a substrate
Fa (fraction absorbed) ([2]; calculated from human mass balance study): 0.8
blood plasma ratio ([2]; human, blood and plasma, oral): 1.26
dose found as parent compound in feces ([2]; in vivo): 20 % of the dose
fraction unbound (Plasma protein binding): 0.5
pKa [3]: 4
MATE1 substrate (MATE1): not a substrate
Observed/Predicted AUC ratio +/- probenecid (OAT3): 1.0
Observed/Predicted Cmax ratio +/- probenecid (OAT3): 0.9
Compound: CCS(=O)(=O)N1CC(CC#N)(n2cc(-c3ncnc4[nH]ccc34)cn2)C1 [Baricitinib]
Ae(0‐48), arithmetic mean (SD) ([1]; 4 mg baricitinib + probenecid): 1.57 (0.191) mg
Ae(0‐48), arithmetic mean (SD) ([1]; 4 mg baricitinib only): 2.60 (0.399) mg
tolerability ([1]; healthy subjects, all drug-related treatment-emergent AEs mild): well tolerated
